{"source": "patent US20230227445A1", "about": "“BENZAMIDE COMPOUND AND USE THEREOF” (HUMANWELL HEALTHCARE (GROUP) CO., LTD., priority 2020, published 2023)", "key": {"[1]": {"system": "ATP/citric acid-stimulated cough in guinea pig", "assay": "Efficacy test for ATP/citric acid-stimulated cough in guinea pig", "format": "in vivo", "details": "guinea pigs, nasal drops, 0.17 mg/kg to 1.5 mg/kg, ATP/citric acid stimulation", "method": "Guinea pigs were adaptively fed for 3 days to 7 days before being grouped. When the body weight of the guinea pigs reached 300 g to 400 g, they were numbered and randomly grouped. Compounds or an excipient were administered to guinea pigs by nasal drops 0.25 hour to 24 hours before the start of the cough assessment. The administration dose of the test sample ranged from 0.17 mg/kg to 1.5 mg/kg. For the cough assessment, the guinea pigs were placed in a whole-body volume scan box for adaptation, and then provided with ATP nebulization, and a few minutes later, they were provided with citric acid nebulization. The cough times within 15 minutes and the cough latency were recorded from the beginning of citric acid nebulization.\n(§1) The experimental data was statistically analyzed by one-way ANOVA to analyze and compare data of the various groups. The statistical analysis result p<0.05 was regarded as a significant difference. The t-test was employed for difference comparison between any two."}, "[2]": {"system": "histamine/citric acid-stimulated cough in guinea pig", "assay": "Efficacy test for histamine/citric acid-stimulated cough in guinea pig", "format": "in vivo", "details": "guinea pigs, nasal drops, 0.17 mg/kg to 1.5 mg/kg, histamine/citric acid stimulation", "method": "Guinea pigs were adaptively fed for 3 days to 7 days before being grouped. When the body weight of the guinea pigs reached 300 g to 400 g, they were numbered and randomly grouped.\nCompounds or an excipient were administered to guinea pigs by nasal drops 0.25 hour to 24 hours before the start of the cough assessment. The administration dose of the test sample ranged from 0.17 mg/kg to 1.5 mg/kg. For the cough assessment, the guinea pigs were placed in a whole-body volume scan box for adaptation, and then, they were provided with histamine nebulization and then citric acid nebulization. […]\nas §1"}, "[3]": {"system": "rat taste", "assay": "Taste test in rat (water vs 0.3 mM aqueous quinine solution intake)", "format": "in vivo, SD rats", "method": "SD rats were administered with the corresponding compound after 3 days of overnight water prohibition training. Each rat was supplied with 1 bottle of water and 1 bottle of 0.3 mM aqueous quinine solution half an hour after the administration. After 15 min of water supply, the bottles were removed. The intake amount of water and the intake amount of the 0.3 mM aqueous quinine solution were measured, respectively. The taste influence of the compound on SD rats was evaluated based on the difference between the intake amount of water and the intake amount of the aqueous quinine solution."}, "[4]": {"assay": "Pharmacokinetic assay in rat", "format": "in vivo, SD rats", "method": "For a rat pharmacokinetic assay, male SD rats (180 g to 240 g) were selected and fasted overnight. Three rats were intragastrically administered with 10 mg/kg of the corresponding compound. The blood of the rats was collected before the administration and at 15 min, 30 min, 1 h, 2 h, 4 h, 8 h, and 24 h after the administration. The blood samples were centrifuged at 4° C. for 6 minutes at 8,000 r/min, and plasma was collected and stored at −20° C. Plasma at each time point was taken, and added with 3 to 5 times the amount of an internal standard-containing acetonitrile solution to mix, and the mixture was vortex mixed for 1 minute, and centrifuged at 4° C. for 10 minutes at 13,000 r/min. The supernatant was taken and mixed with 3 times the amount of water, and an appropriate amount of the mixed solution was taken for LC-MS/MS analysis. The primary pharmacokinetic parameters were analyzed by WinNonlin 7.0 software non-atrioventricular model."}, "[5]": {"assay": "Pharmacokinetic assay in mouse", "format": "in vivo, ICR mice", "method": "For a mouse pharmacokinetic assay, male ICR mice (20 g to 25 g) were selected and fasted overnight. Three mice were intragastrically administered with 10 mg/kg of the corresponding compound. The blood of the mice was collected before the administration and at 15 min, 30 min, 1 h, 2 h, 4 h, 8 h, and 24 h after the administration. The blood samples were centrifuged at 4° C. for 6 minutes at 6,800 g, plasma was collected and stored at −80° C.\nThe supernatant was mixed with 3 times the amount of water, and an appropriate amount of the mixed solution was taken for LC-MS/MS analysis. The primary pharmacokinetic parameters were analyzed by WinNonlin 7.0 software non-atrioventricular model."}, "[6]": {"molecular_target": "T1, hP2X3 receptor (Homo sapiens, UniProt P56373)", "T1 construct": "expressed in transfected cells", "T1 sequence (P56373 1-397)": "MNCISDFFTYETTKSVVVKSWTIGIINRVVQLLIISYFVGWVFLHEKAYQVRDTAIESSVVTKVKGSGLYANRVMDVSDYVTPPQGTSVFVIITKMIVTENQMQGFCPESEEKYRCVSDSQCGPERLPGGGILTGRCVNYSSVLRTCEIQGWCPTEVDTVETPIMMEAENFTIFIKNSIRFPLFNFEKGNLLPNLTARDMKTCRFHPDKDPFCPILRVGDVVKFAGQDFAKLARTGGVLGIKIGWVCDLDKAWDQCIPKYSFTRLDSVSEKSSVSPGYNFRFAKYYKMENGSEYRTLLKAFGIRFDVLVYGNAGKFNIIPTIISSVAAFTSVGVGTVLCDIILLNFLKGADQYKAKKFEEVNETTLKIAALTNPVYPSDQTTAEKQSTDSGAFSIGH", "assay": "Antagonistic activity against hP2X3 receptor by FLIPR calcium flow assay", "format": "cell-based", "method": "The antagonistic activity of hP2X3 antagonists against hP2X3 receptor was evaluated by means of FLIPR Calcium 4 Assay Kit (Molecular Devices, R8141) and FLIPR TETRA instrument (Molecular Devices, 0296) by detecting calcium flow signals. 24h before the experiment, human cells, which had been stably transfected with hP2X3 receptors, were plated on a 384-well plate at 2×10^5 cells/mL, with 50 μL of cell suspension per well, and the plate was cultured in an incubator (37° C., 5% CO2) for 16 h to 24 h. The test compound solution (20 to 50 mM DMSO stock solution) with a concentration of 180 times the required concentration was prepared using DMSO. The stock solution was added to the 384-well plate at 500 nL per well, supplemented with 30 μL of FLIPR Assay buffer (1×HBSS+2 mM CaCl2 20 mM HEPES containing 1.26 mM Ca^2+). The 384-well plate was shaken for 20 to 40 min to mix evenly. An agonist (α, β-meATP) with a concentration of 3 times the required concentration (required final concentration was 400 nM) was prepared with FLIPR Assay buffer, and was added to another 384-well plate at 45 μL per well. The culture plate, on which the cells were plated one day ago, was taken, the cell supernatant was sucked and discarded, each well was added with 30 μL of Dye (FLIPR® Calcium 4 Assay Kit, diluted with FLIPR buffer), and then the plate was incubated for 1h. 15 μL of compound was added to each well of cells (using FLIPR sample injector). After 15 minutes, 22.5 μL of the agonist was added to each well, and the fluorescence signal (exciting light wavelength ranging from 470 nm to 495 nm, and emission wavelength ranging from 515 nm to 575 nm) was detect. […] An inhibition effect curve of the compound was fitted on the software GraphpadPrism6, and the IC50 value was calculated."}, "[7]": {"details": "rat, plasma, po, male SD rats, intragastric administration, 10 mg/kg"}, "[8]": {"details": "mouse, plasma, po, male ICR mice, intragastric administration, 10 mg/kg"}}, "data": [{"smiles": "Cc1cnc(-c2cc(O[C@@H]3CCOC3)cc(C(=O)N[C@H](C)c3cnc(C(F)(F)F)nc3)c2F)s1", "note": "[Compound I-1, 2-fluoro-3-(5-methylthiazol-2-yl)-5-(((R)-tetrahydrofuran-3-yl)oxy)-N—((R)-1-(2-(trifluoromethyl)pyrimidin-5-yl)ethyl)benzamide]", "values": [{"measurement": "Average cough times within 15 min", "setting": "[1]", "result": 6.5}, {"measurement": "Cough inhibition rate vs. solvent", "setting": "[1]", "result": 67.2, "unit": "%"}, {"measurement": "Average cough times within 15 min", "setting": "[2]", "result": 10.8}, {"measurement": "Cough inhibition rate vs. solvent", "setting": "[2]", "result": 59.4, "unit": "%"}, {"measurement": "Water/aqueous quinine solution (ratio of water intake to aqueous quinine solution intake)", "setting": "[3]; SD rats, 30 mg/kg i.p, 0.3 mM quinine, 15 min supply half an hour after administration", "result": 18.2}, {"measurement": "interference on rat taste compared with Reference compound 1 (in words)", "setting": "[3]; vs positive reference compound", "result": "significantly less interference on rat taste"}, {"measurement": "pharmacokinetic properties in rat compared with reference compound 1 (in words)", "setting": "[4]; rat model, vs reference compound 1", "result": "improved to certain extent"}, {"measurement": "AUC(0-t)", "setting": "[4]; [7]", "result": 5940, "unit": "ng·h/mL"}, {"measurement": "Cmax", "setting": "[4]; [7]", "result": 569, "unit": "ng/mL"}, {"measurement": "Tmax", "setting": "[4]; [7]", "result": 4, "unit": "h"}, {"measurement": "half-life", "setting": "[4]; rat, plasma, po, male SD rats, intragastric administration, 10 mg/kg, read-out: T½ (converted)", "result": 3.61, "unit": "h"}, {"measurement": "pharmacokinetic properties in mouse compared with Reference compound 1 and Reference compound 2 (in words)", "setting": "[5]; mouse assay, vs Reference compounds 1 and 2", "result": "significantly improved pharmacokinetic properties"}, {"measurement": "AUC(0-t)", "setting": "[5]; [8]", "result": 12100, "unit": "ng·h/mL"}, {"measurement": "Cmax", "setting": "[5]; [8]", "result": 1550, "unit": "ng/mL"}, {"measurement": "Tmax", "setting": "[5]; [8]", "result": 2, "unit": "h"}, {"measurement": "half-life", "setting": "[5]; mouse, plasma, po, male ICR mice, intragastric administration, 10 mg/kg, read-out: T½ (converted)", "result": 2.3, "unit": "h"}, {"measurement": "IC50", "setting": "[6]; human cells stably transfected with hP2X3, agonist α,β-meATP 400 nM", "result": 0.083, "unit": "µM"}, {"measurement": "antagonistic activity against hP2X3 receptor compared with Reference compound 1 (in words)", "setting": "[6]; vs Reference compound 1", "result": "better antagonistic activity"}]}]}
